Measured values published in PubChem BioAssay AID1198 (NMMLSC, 2008).
The source made the active and inactive calls.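 The calls were made as follows: active = EC50 under 10 microM for raising side scatter, a sign of cell differentiation; inactive = the rest, including fits that never converged.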

Assays:
[1] = tested on: LNCaP side scatter shift, flow cytometry, 4 days; test: LNCaP side scatter shift induction by compounds – cell-based, flow cytometry, side scatter granularity, dose response (AID 1198)
[2] = as above; conditions: LNCaP side scatter shift, flow cytometry, 4 days; at 30 µM (top of the series)

| SMILES | EC50 [1] | side scatter activation [2] |
| --- | --- | --- |
| Cc1cc(N2CCN(C)CC2)nc2ccc(NC(=O)c3ccc(Br)o3)cc12 | 2.79 µM | – |
| CCOc1ccc(NC(=O)COc2nsnc2N2CCCCC2)cc1 | – | 0% (inactive) |
| Cc1oc(-c2ccc(Cl)cc2)nc1CN1CCC(C(=O)N2CCN(Cc3ccccc3)CC2)CC1 | – | 31.1% (inactive) |
| CN1CCN(c2cc3c(c4c2[nH]c2ccccc24)C(=O)CC(C)(C)C3)CC1 | 3.65 µM | – |
| COc1ccc(N2CCN(CCCNC(=O)CC3Oc4ccc(C)cc4NC3=O)CC2)cc1 (stereo not drawn) | 27 µM (inactive) | – |
| Cc1ccccc1CS(=O)(=O)CCC(=O)NCCCN1CCN(c2ccccc2F)CC1 | – | 31.1% (inactive) |
| CN(CC(O)COc1ccc(OCC(O)CN(C)C2CCCCC2)cc1)C1CCCCC1 (stereo not drawn) | 4.32 µM | – |
| Cc1oc(-c2ccc(Cl)cc2)nc1CN1CCC(C(=O)NCCCN2CCOCC2)CC1 | 3 µM | – |
| CCN(CC)CC(=O)Nc1ccc(-c2nc3cc(NC(=O)CN(CC)CC)ccc3o2)cc1 | 0.83 µM | – |
| COc1ccc2cc3cc(C(=O)Nc4ccccc4N4CCN(C)CC4)oc3nc2c1 | – | 44.4% (inactive) |
| CN(C)c1ccc(CNC2CC(C)(C)NC(C)(C)C2)cc1 | 8.74 µM | – |
| CCN1CCN(C(c2cccs2)C(C)NS(=O)(=O)c2ccc(Br)cc2)CC1 (stereo not drawn) | 15.2 µM (inactive) | – |
| CCN1CCCC1CNC(=O)c1cc2c(-c3ccc(Cl)cc3)nn(C)c2s1 (stereo not drawn) | – | 84.3% (inactive) |
| COc1ccc(Cc2nc(-c3ccc(-n4cccc4)cc3)no2)cc1OC | – | 1.98% (inactive) |
| Cc1noc(/C=C/c2ccco2)c1S(=O)(=O)N1CCC(C(=O)N2CCc3ccccc3C2)CC1 | 5.2 µM | – |
| COc1ccc(Nc2nc(N)nc(CN3CCC(Cc4ccccc4)CC3)n2)cc1 | – | 73% (inactive) |
| COc1ccccc1N1CCN(c2nc3ccccc3nc2C(C#N)C(=O)OC(C)C)CC1 (stereo not drawn) | – | 44.4% (inactive) |
| CCOC(=O)c1ccccc1NC(=O)Cn1c(-c2nonc2N)nc2ccccc21 | – | 44.4% (inactive) |
| Cc1cc(N2CCN(C)CC2)nc2ccc(NC(=O)c3ccc4c(c3)OCO4)cc12 | 10.4 µM (inactive) | – |
| Cn1c(=O)cc(OCC(=O)NCCCN2CCN(c3ccccc3F)CC2)c2ccccc21 | – | 73% (inactive) |
| CC1CCCCN1CCNC(=O)c1ccc2c(=O)n(CCc3ccccc3)c(=O)[nH]c2c1 (stereo not drawn) | 6.5 µM | – |
| CCCOc1ccccc1C1CC(=O)Nc2cc3c(cc21)OCO3 (stereo not drawn) | – | 0% (inactive) |
| CCN1CCN(c2ncc(C(=O)Nc3cc(Cl)c(OC)cc3OC)c3ccccc23)CC1 | 5.59 µM | – |
| CN(C)CCCN1c2ccccc2CCc2ccc(Cl)cc21 | – | 73% (inactive) |

| SMILES | EC50 [1] | side scatter activation [2] |
| --- | --- | --- |
| N=c1n(CCN2CCCCC2)c2ccccc2n1CC(O)COc1ccccc1 (stereo not drawn) | 0.994 µM | – |
| CCn1c(=O)cc(SCC(=O)NCCCN2CCN(c3ccccc3F)CC2)c2ccccc21 | 8.92 µM | – |
| Cn1c(=O)[nH]c(=O)c2c1nc(Br)n2CCCSc1nc2ccccc2o1 | – | 1.98% (inactive) |
| CCOC(=O)c1c(C)n(C)c2ccc(OCC(O)CNC(CC)CO)cc12 (stereo not drawn) | – | 38.5% (inactive) |
| Cn1c(C(=O)NCCCN2CCN(c3cccc(Cl)c3)CC2)cc2c(=O)n(C)c3ccccc3c21 | 0.87 µM | – |
| COc1ccc(-c2noc(CCC(=O)NCCCN3CCC(Cc4ccccc4)CC3)n2)cc1 | – | 1.98% (inactive) |
| COC(=O)c1cc(-c2ccccc2)sc1NC(=O)c1cc(C)on1 | 1.87 µM | – |
| COc1ccccc1NC(=O)c1nc[nH]c1C(=O)Nc1ccccc1OC | 9.52 µM | – |
| CC(C)(C)c1ccc(C(O)CCCN2CCC(C(O)(c3ccccc3)c3ccccc3)CC2)cc1 (stereo not drawn) | – | 0% (inactive) |
| CCOC(=O)c1c(C)[nH]c(C(=O)COC(=O)C2CC2C)c1C (stereo not drawn) | – | 73% (inactive) |
| COc1cc2nc(N3CCN(C(=O)C4COc5ccccc5O4)CC3)nc(N)c2cc1OC (stereo not drawn) | 3.95 µM | – |
| CCN(CCNC(=O)C1CCN(Cc2nc(-c3cccc(Cl)c3)oc2C)CC1)c1ccccc1 | – | 0% (inactive) |
| Cc1cc2c(=O)n(CC(=O)N3CCN(c4ccccc4)CC3)cnc2s1 | – | 84.3% (inactive) |
| CCOc1ccc(-c2cc(C(=O)NCCCN3CCN(CC)CC3)c3ccccc3n2)cc1 | 6.41 µM | – |
| CCCS(=O)(=O)N1CCCC(C(=O)NCCCN2CCN(c3ccc(F)cc3)CC2)C1 (stereo not drawn) | – | 1.98% (inactive) |
| Cn1nc(-c2ccc(Cl)cc2)c2cc(C(=O)NCCCN3CCOCC3)sc21 | 5.53 µM | – |
| Cc1ccc(OCC(O)Cn2c(=N)n(CCN3CCCCC3)c3ccccc32)cc1 (stereo not drawn) | 4.11 µM | – |
| CCN(CC)CCNC(=O)c1cc2c(-c3ccc(Cl)cc3)nn(C)c2s1 | – | 31.1% (inactive) |
| CCN(CC)CCCNC(=O)c1cc2c(-c3ccc(Cl)cc3)nn(C)c2s1 | – | 84.3% (inactive) |
| CCCc1cc(-c2n[nH]c(C)c2-c2ccc(C(=O)OCC)o2)c(O)cc1O | – | 1.98% (inactive) |
| COc1ccc(-c2oc3ncn(CCN4CCOCC4)c(=N)c3c2-c2ccc(OC)cc2)cc1 | – | 44.4% (inactive) |
| Cc1ccc(C)c(N2CCN(CCCNC(=O)Cn3cc4c(n3)CCCCC4)CC2)c1 | – | 0% (inactive) |
| COc1ccc(CCN2CCC(Nc3nc4ccccc4n3Cc3ccc(F)cc3)CC2)cc1 | – | 40.2% (inactive) |
| Cn1c(=O)cc(SCC(=O)NCCCN2CCN(c3ccccc3F)CC2)c2ccccc21 | – | 31.1% (inactive) |

| SMILES | EC50 [1] | side scatter activation [2] |
| --- | --- | --- |
| Cc1ccc(Cl)cc1N1CCN(C(=O)c2cc3c(=O)n(C)c4ccccc4c3n2C)CC1 | – | 0% (inactive) |
| CCn1c(=O)cc(SCC(=O)NCCN2CCN(Cc3ccccc3)CC2)c2ccccc21 | – | 73% (inactive) |
| Cc1ccccc1-c1nc(CN2CCC(C(=O)NCCCN3CCCC3)CC2)c(C)o1 | – | 1.98% (inactive) |
| O=C(c1ccccc1)c1ccc(N2CCNCC2)cc1 | – | 73% (inactive) |
| O=c1cc(-c2ccccc2)[nH]c2ccccc12 | – | 1.98% (inactive) |
| COc1ccc(N2CCN(CCCNC(=O)c3cc4sccc4n3C)CC2)cc1 | – | 40.2% (inactive) |
| Cc1ccc2c(c1)-c1c(cnn1CC(=O)Nc1ccccc1N1CCN(C)CC1)CO2 | 8.06 µM | – |
| CN(CCNC(=O)C1CC(=O)N(c2ccc(F)c(Cl)c2)C1)Cc1ccccc1 (stereo not drawn) | – | 44.4% (inactive) |
| Cc1nc2ncnn2c(C)c1CCC(=O)NCCCN1CCN(c2cccc(Cl)c2)CC1 | – | 84.3% (inactive) |
| Cc1ccccc1-c1nc(CN2CCCC(C(=O)NCCCN3CCOCC3)C2)c(C)o1 (stereo not drawn) | 7.03 µM | – |
| CC1CCCCN1CCNC(=O)c1cc2c(-c3ccccc3F)nn(C)c2s1 (stereo not drawn) | – | 84.3% (inactive) |
| O=C(Cn1cc2c(n1)CCCC2)NCCCN1CCN(c2ccccc2F)CC1 | – | 31.1% (inactive) |
| COc1ccc(-c2ccc(-c3noc(-c4ccccc4)n3)c(OC)n2)cc1 | 10.4 µM (inactive) | – |
| Oc1c(CN2CCCCC2)cc(COCc2ccccc2)c2cccnc12 | 3.81 µM | – |
| Cc1ccccc1-c1nc(CN2CCC(C(=O)NCCCN3CCOCC3)CC2)c(C)o1 | 6.69 µM | – |
| Cn1nc(-c2ccc(Cl)cc2)c2cc(C(=O)NCCCN3CCCC3)sc21 | – | 84.3% (inactive) |
| Cc1cccc(-c2nsc(SCC(=O)Nc3nccs3)n2)c1 | 12 µM (inactive) | – |
| COc1ccc(CCn2c(=N)c(C(=O)NCc3ccco3)cc3c(=O)n4ccccc4nc32)cc1 | 7.49 µM | – |
| Cc1ccc(CNc2nc3ccccc3n3nnnc23)cc1 | – | 40.2% (inactive) |
| CN1CCN(CCCNC(=O)c2cc3c(-c4ccc(Cl)cc4)nn(C)c3s2)CC1 | 6.41 µM | – |
| Nc1ccc(-n2ccnc2)cc1 | – | 84.3% (inactive) |
| CCOc1ccccc1NC(=O)c1nc[nH]c1C(=O)Nc1ccccc1OCC | 6.66 µM | – |
| O=C(NCCCN1CCN(c2ccc(F)cc2)CC1)c1cccc(N2CCCC2=O)c1 | – | 73% (inactive) |
| Cc1ccccc1-c1nc(CN2CCC(C(=O)NCc3cccnc3)CC2)c(C)o1 | – | 38.5% (inactive) |

| SMILES | EC50 [1] | side scatter activation [2] |
| --- | --- | --- |
| CCc1ccc(-c2nc(CN3CCC(C(=O)NCc4ccc(F)cc4)CC3)c(C)o2)cc1 | – | 0% (inactive) |
| CC(C)N1CCC2(CC1)N=C(c1ccc3c(c1)OCO3)CC(c1cc(Cl)ccc1O)N2 (stereo not drawn) | – | 1.98% (inactive) |
| O=C(CCN1C(=O)COc2ccccc21)NCCCN1CCN(c2ccc(F)cc2)CC1 | – | 40.2% (inactive) |
| CCN1CCN(c2cc(C)c3cc(NC(=O)c4ccc(Br)o4)ccc3n2)CC1 | – | 73% (inactive) |
| CCN(CCNC(=O)C1CCN(Cc2nc(-c3ccc(Cl)cc3)oc2C)CC1)c1ccccc1 | 2 µM | – |
| COc1ccc(-c2noc(-c3cc(Cl)ccc3Cl)n2)cc1OC | 5.7 µM | – |
| CCN(CC)CCNC(=O)c1ccc(N2CCCCC2)c(NS(=O)(=O)c2ccc(C)cc2)c1 | – | 44.4% (inactive) |
| CCOc1cccc2cc(-c3cn4cc(C)ccc4n3)c(=O)oc12 | 20.6 µM (inactive) | – |
| COc1ccc(N2CCN(CCCNC(=O)CCCn3c(=O)[nH]c4ccsc4c3=O)CC2)cc1 | – | 1.98% (inactive) |
| CCCN(CCC)CCNC(=O)C1CCN(Cc2nc(-c3ccc(Cl)cc3)oc2C)CC1 | 0.768 µM | – |
| COc1ccc(-c2cc(C(F)(F)F)nc(N3CCN(Cc4ccccc4)CC3)n2)cc1OC | – | 44.4% (inactive) |
| CCOC(=O)c1[nH]c(C)c(C(=O)N2CCc3ccccc32)c1C | – | 1.98% (inactive) |
| O=C(NCCCN1CCN(c2cccc(Cl)c2)CC1)c1cccc(N2CCCC2=O)c1 | – | 38.5% (inactive) |
| Cc1ccc(Nc2cc(=O)n(C3CCCCC3)c(=O)[nH]2)cc1C | – | 0% (inactive) |
| COc1ccccc1N1CCN(Cc2cc(Br)c(O)c3ncccc23)CC1 | – | 1.98% (inactive) |
| O=S1(=O)C=C(Sc2nc3ccccc3s2)c2ccccc21 | – | 0% (inactive) |
| Clc1ccc(COC(Cn2ccnc2)c2ccc(Cl)cc2Cl)cc1 (stereo not drawn) | – | 0% (inactive) |
| C[C@H]1CCC/C=C/C2C[C@H](O)CC2[C@H](O)/C=C/C(=O)O1 (stereo partly drawn) | – | 0% (inactive) |
| Cc1cc(C)nc(N2CCC(C(=O)Nc3ccc(Oc4ccccc4)cc3)CC2)n1 | – | 40.2% (inactive) |
| CCn1c(=N)n(CC(O)COc2cccc(C)c2)c2ccccc21 (stereo not drawn) | – | 0% (inactive) |
| Cc1ccccc1-c1nc(CN2CCC(C(=O)NCCCN3CC(C)CC(C)C3)CC2)c(C)o1 (stereo not drawn) | – | 31.1% (inactive) |
